Measured values reported in PubChem BioAssay (NCI).
Values joined by “and” are separate entries in the source; they are usually repeats but may differ in a detail not shown here. Equal values may be shown once.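 Test compounds were applied to cells in 96-well plates for 48 hours at 5 doses. Here, GI50 denotes the concentration required for 50% inhibition of growth. At the TGI there is no net growth.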

Tests used:
Experiment in all cases: inhibition of tumour cell growth, NCI panel, 48 h
[1] = system: RXF 393 renal
[2] = system: OVCAR-4 ovarian
[3] = system: HCT-116 colon
[4] = system: BT-549 breast
[5] = system: SF-295 CNS
[6] = system: NCI-H226 lung
[7] = system: EKVX NSCLC
[8] = system: T-47D breast
[9] = system: U251 CNS
[10] = system: SF-539 CNS

| SMILES | GI50 [1] | TGI [1] | GI50 [2] | TGI [2] | GI50 [3] | TGI [3] | GI50 [4] | TGI [4] | GI50 [5] | TGI [5] | GI50 [6] | TGI [6] | GI50 [7] | TGI [7] | GI50 [8] | TGI [8] | GI50 [9] | TGI [9] | GI50 [10] | TGI [10] |
| --- | --- | --- | --- | --- | --- | --- | --- | --- | --- | --- | --- | --- | --- | --- | --- | --- | --- | --- | --- | --- |
| C[C@H]1CCC/C=C/[C@@H]2C[C@H](O)C[C@H]2[C@H](O)[C@@H](SCC(O)CO)CC(=O)O1 (some centres not stated) | 4.42 µM | 20.1 µM | 4.17 µM | > 100 µM | 35.5 µM | > 100 µM | 69.2 µM | > 100 µM | 43.8 µM | > 100 µM | 18.7 µM | 44 µM | 27.7 µM | > 100 µM | 45.2 µM | > 100 µM | 42.3 µM | > 100 µM | 31.8 µM | > 100 µM |
| O=C(Nc1ccc(Cl)c(Cl)c1)Nc1ccccc1O | 15 µM | 35.6 µM | 5.44 µM | > 100 µM | 7.22 µM | 33.5 µM | 24.9 µM | 91.3 µM | 3.06 µM | 11.3 µM | 15.9 µM | 53.7 µM | 18.2 µM | 61.5 µM | 4.11 µM | 43.6 µM | 6.41 µM | 25.3 µM | 12.4 µM | 30.4 µM |
| C=C1CC[C@@H](C(C)C)C[C@@H]2[C@H]([C@H](O)C[C@]2(C)O)[C@@]2(C)CC[C@@H]1O2 | 19.6 µM | 34.1 µM | 14.8 µM | 28 µM | 16.7 µM | 30.3 µM | 27.6 µM | 55.1 µM | 14.7 µM | 32.3 µM | 16.8 µM | 31.5 µM | 28 µM | 55.9 µM | 14.9 µM | 33.1 µM | 16.9 µM | 30.5 µM | 24.4 µM | 43.3 µM |
| O=C(OCc1ccc2c(Cl)cc(Cl)c(O)c2n1)N1CCN(C(=O)c2cc3cc(F)ccc3[nH]2)CC1 | 3.03 µM | > 100 µM | 5.37 µM | > 100 µM | 0.392 µM | > 100 µM | 1.17 µM | > 24 µM | 9.49 µM | > 100 µM | 45.4 µM | > 100 µM | > 74.9 µM | > 100 µM | > 100 µM | > 100 µM | 2.55 µM | > 100 µM | 0.403 µM | 3.02 µM |
| CCN(CC)CCNC(=O)c1ccc(C)c(OCc2ccccc2)c1[N+](=O)[O-] | – | > 91.3 µM | – | > 100 µM | – | 47.8 µM | – | > 50.6 µM | – | 55.8 µM | – | 90.3 µM | – | > 100 µM | – | 58 µM | – | > 84.1 µM | – | 70.9 µM |
| COc1ccc2c(Oc3ccc(NC(=O)c4c(C)n(CC(C)(C)O)n(-c5ccccc5)c4=O)nc3)ccnc2c1 | 3.38 µM | 41.5 µM | 10.7 µM | > 90 µM | 8.55 µM | > 64.3 µM | 22.7 µM | > 66 µM | 0.654 µM | 12.7 µM | 16.2 µM | > 78 µM | 23.3 µM | > 80.3 µM | 25.4 µM | > 100 µM | 13.1 µM | > 100 µM | 5.85 µM | 50.9 µM |
| Cn1c(=O)c2c(ncn2CC(=O)Nc2ccc(-c3ccccc3)nn2)n(C)c1=O | 48.3 µM | > 100 µM | > 100 µM | > 100 µM | > 100 µM | > 100 µM | > 100 µM | > 100 µM | > 100 µM | > 100 µM | > 100 µM | > 100 µM | > 100 µM | > 100 µM | 75.6 µM | > 100 µM | > 100 µM | > 100 µM | > 100 µM | > 100 µM |
| CN1CCN(c2ccc(Nc3ncc4cc(C#N)c(=O)n(C5CCCC5)c4n3)cc2)CC1 | 0.477 µM | 2.23 µM | 3.08 µM | > 100 µM | 0.587 µM | > 100 µM | 2.65 µM | 7.58 µM | 1.19 µM | > 42.6 µM | 0.84 µM | 10.6 µM | 2.93 µM | > 100 µM | 2.32 µM | > 100 µM | 1.74 µM | > 100 µM | 1.28 µM | 3.27 µM |
| O=c1[nH]c(=O)n([C@H]2CCCO2)cc1F | 1060 µM | > 5000 µM | – | > 5000 µM | 1020 µM | > 5000 µM | – | > 5000 µM | > 4530 µM | > 5000 µM | 3650 µM | 720 µM and > 5000 µM | > 2060 µM | > 5000 µM | 2610 µM | > 5000 µM | > 4570 µM | > 5000 µM | 374 µM | 864 µM and 3520 µM |
| Nc1ccc2[nH]cc(CCC(=O)O)c2c1 | – | > 100 µM | – | > 100 µM | – | > 100 µM | – | > 100 µM | – | > 100 µM | – | > 100 µM | – | > 100 µM | – | > 100 µM | – | > 100 µM | – | > 100 µM |
| COc1ccc2c3c(Nc4ccc(/C(C)=N/O)cc4)[nH]c4ccccc4c-3c(N=O)c2c1 | – | 0.0372 µM | 28.4 µM | 68.2 µM | 1.47 µM | 2.89 µM | 3.98 µM | 23.1 µM | 9.11 µM | 38.9 µM | 17 µM | 38.3 µM | 3.74 µM | 20.4 µM | 24.1 µM | 53.2 µM | 2.31 µM | 12.9 µM | 17.3 µM | 34.6 µM |
| C/C(=N\NC(=S)N1CC2CCC(CC2)C1)c1ccccn1 | 0.226 µM | 1.3 µM | 0.0238 µM | 1.1 µM | < 0.01 µM | 1.15 µM | 0.135 µM | 1.84 µM | 0.178 µM | 2.08 µM | 0.394 µM | 1.91 µM | 0.0322 µM | 1.16 µM | 0.0113 µM | 1.39 µM | 0.0473 µM | 1.19 µM | 0.257 µM | 2.34 µM |
| Cc1ncc([N+](=O)[O-])n1CCNS(=O)(=O)CCCn1ncnc1[N+](=O)[O-] | – | > 100 µM | – | > 100 µM | – | > 100 µM | – | > 100 µM | – | > 100 µM | – | > 100 µM | – | > 100 µM | – | > 100 µM | – | > 100 µM | – | > 100 µM |
| Cn1cc(-c2ccc(-c3cncc(Cl)c3N3CCC4(CCNC4=O)CC3)cc2)cn1 | 18.2 µM | > 100 µM | 65.1 µM | > 100 µM | 24.3 µM | > 100 µM | 26 µM | > 100 µM | 66.7 µM | > 100 µM | 65.5 µM | > 100 µM | 51.9 µM | > 100 µM | 25.9 µM | > 100 µM | 51.3 µM | > 100 µM | 27.8 µM | > 100 µM |
| S=C1SC2=Nc3ccccc3CN2C2=NCCN12 | 23.3 µM | 80.4 µM | > 100 µM | > 100 µM | 52.8 µM | > 100 µM | 99.9 µM | > 100 µM | 83.5 µM | > 100 µM | > 100 µM | > 100 µM | > 100 µM | > 100 µM | 78.5 µM | > 100 µM | 39.2 µM | > 100 µM | > 100 µM | > 100 µM |
